Source: US20240050477A1, “LIPID NANOPARTICLE” (NATIONAL UNIVERSITY CORPORATION HOKKAIDO UNIVERSITY, priority 2021, published 2024)

How the values were obtained:
[1] = pKa of lipid nanoparticle measured using TNS; assay type: physicochemical; conditions: apparent pKa of the pH-sensitive cationic lipid constituting a lipid nanoparticle
Description: The pKa of lipid nanoparticles was measured using […] (TNS). TNS (final concentration: 0.75 mM) and the lipid nanoparticles (final concentration: 30 mM) were first mixed in a buffer solution adjusted to each pH. The fluorescence intensity of the prepared mixed solution was measured using a microplate reader.

[2] = system: GAPDH mRNA in NK-92 cells; experiment: GAPDH gene knockdown activity of siGAPDH-encapsulated lipid nanoparticle in NK-92 cells (RT-qPCR); assay type: cell-based, human; conditions: siGAPDH-encapsulated LNP, siRNA 10-90 nM, 24 hours after transfection
Description: A NK cell line (NK-92 or NK-92MI) was transfected with each lipid nanoparticle. The knockdown activity of the siGAPDH- or siSMAD3-encapsulated lipid nanoparticle was examined by RT-qPCR using RNA extracted from the cells 24 hours later as a template.
First, the NK cell line was recovered into a 50 mL tube and centrifuged (130×g, 4° C., 5 min). The supernatant was removed, and the cells were suspended in 10 mL of a culture medium (Opti-MEM), counted, and then resuspended into 4×10^6 cells/mL in a culture medium. […]
The cells were recovered into a 1.5 mL tube from each well and centrifuged (800×g, 4° C., 3 min). […] Then, absorbance was measured using micro-volume spectrophotometer “Nano drop” (manufactured by Thermo Fisher Scientific Inc.) to measure the concentration and purity of the RNA.
Reverse-transcription reaction was performed with the recovered RNA as a template using an oligo dT primer and a random primer (6 mars) in a kit for reverse-transcription reaction (“PrimeScript RT reagent kit”, manufactured by Takara Bio Inc.). Then, a GAPDH or SMAD3 mRNA level was measured by real-time PCR with the obtained cDNA as a template using relative quantification based on the ΔΔCt method and β-actin (ACTB) as an endogenous gene. […]

| SMILES | pKa [1] | GAPDH gene knockdown activity ([GAPDH mRNA level]/[ACTB mRNA level]) [2] |
| --- | --- | --- |
| CCCCC/C=C\C/C=C\CCCCCCCCC(O)(CCCCCCCC/C=C\C/C=C\CCCCC)CCCCN(C)C [YSK12-C4] | 8.2 | – |
| CCCCCCCC/C=C\CCCCCCCC(=O)OCCCCCCC(O)(CCCCCCOC(=O)CCCCCCC/C=C\CCCCCCCC)CCCCN(C)C [CL1H6] | 8.2 | high gene knockdown activity at a small content ratio |
| CCCCCCCC/C=C\CCCCCCCC(=O)OCCCCCCC(O)(CCCCCCOC(=O)CCCCCCC/C=C\CCCCCCCC)CCCCOC(=O)C1CCN(C)CC1 [CL15H6] | 7.3 | – |
| CCCCCCCC/C=C\CCCCCCCC(=O)OCCCCCCC(O)(CCCCCCOC(=O)CCCCCCC/C=C\CCCCCCCC)CCCCN(CCC)CCC [CL4H6] | 6.35 | – |
